Laboratory results from paper PMC10218596 (International Journal of Molecular Sciences, 2023).
Where two headings read alike, the source gives them in different places. Where a SMILES comes first, the peptide text is derived from it. Bridges are numbered along the chain shown (N, C = ends).

Experiments:
[1] = target: T1, h[α6N58K/α3]β4 (Homo sapiens, UniProt P30926+P32297+Q15825, N91K); format: cell-based
T1 construct: formed by splicing the N-terminal extracellular domain of the α6 subunit with the α3 subunit; human nAChR α3 subunit (CHRNA3); expressed in transfected cells; host or cells: Xenopus laevis oocytes injected with cRNA (plasmids from the University of Utah)

[2] = target: T2, hα6/α3β4Q33E (Homo sapiens, UniProt P30926+Q15825, Q59E); format: cell-based
T2 construct: splicing the N-terminal extracellular domain of the α6 subunit with the α3 subunit; mutant made by PCR mutagenesis; host or cells: Xenopus laevis oocytes injected with cRNA

[3] = target: T3, h[α6M112V/α3]β4 (Homo sapiens, UniProt P30926+P32297+Q15825, M145V); format: cell-based
T3 construct: formed by splicing the N-terminal extracellular domain of the α6 subunit with the α3 subunit; fusion partner: remainder of the human α3 subunit (CHRNA3); expressed in transfected cells; host or cells: Xenopus laevis oocytes injected with cRNA

[4] = target: T4, hα6/α3β4V115I (Homo sapiens, UniProt P30926+Q15825, V141I); assay: cell-based
T4 construct: splicing the N-terminal extracellular domain of the α6 subunit with the α3 subunit; mutant made by PCR mutagenesis; host or cells: Xenopus laevis oocytes injected with cRNA

[5] = target: T5, hα6/α3β4L116Q (Homo sapiens, UniProt P30926+Q15825, L142Q); format: cell-based
T5 construct: splicing the N-terminal extracellular domain of the α6 subunit with the α3 subunit; mutant made by PCR mutagenesis; host or cells: Xenopus laevis oocytes injected with cRNA

[6] = test system: h[α6V32L, K61R/α3]β4; format: cell-based, human
[7] = target: T6, hα6/α3β4K31R (Homo sapiens, UniProt P30926+Q15825, K57R); format: cell-based
T6 construct: splicing the N-terminal extracellular domain of the α6 subunit with the α3 subunit; mutant made by PCR mutagenesis; host or cells: Xenopus laevis oocytes injected with cRNA

[8] = test system: h[α6R63C/α3]β4; format: cell-based, human
[9] = target: T7, h[α6R63C/α3]β4 (Homo sapiens, UniProt P30926+P32297+Q15825, R96C); format: cell-based
T7 construct: formed by splicing the N-terminal extracellular domain of the α6 subunit with the α3 subunit; human nAChR α3 subunit (CHRNA3); expressed in transfected cells; host or cells: Xenopus laevis oocytes injected with cRNA (plasmids from the University of Utah)

[10] = target: T8, h[α6N110D/α3]β4 (Homo sapiens, UniProt P30926+P32297+Q15825, N143D); format: cell-based
T8 construct: formed by splicing the N-terminal extracellular domain of the α6 subunit with the α3 subunit; fusion partner: remainder of the human α3 subunit (CHRNA3); expressed in transfected cells; host or cells: Xenopus laevis oocytes injected with cRNA

[11] = target: T9, hα6/α3β4 (Homo sapiens, UniProt P30926+P32297+Q15825); assay: cell-based; format: cell-based
T9 construct: splicing the N-terminal extracellular domain of the α6 subunit with the α3 subunit; host or cells: Xenopus laevis oocytes injected with cRNA (1:1)

[12] = target: T10, h[α6I56V/α3]β4 (Homo sapiens, UniProt P30926+P32297+Q15825, I89V); format: cell-based
T10 construct: formed by splicing the N-terminal extracellular domain of the α6 subunit with the α3 subunit; human nAChR α3 subunit (CHRNA3); expressed in transfected cells; host or cells: Xenopus laevis oocytes injected with cRNA (plasmids from the University of Utah)

[13] = target: T11, hα6/α3β4A37S (Homo sapiens, UniProt P30926+Q15825, A63S); format: cell-based
T11 construct: splicing the N-terminal extracellular domain of the α6 subunit with the α3 subunit; mutant made by PCR mutagenesis; host or cells: Xenopus laevis oocytes injected with cRNA

[14] = target: T12, h[α6K81N/α3]β4 (Homo sapiens, UniProt P30926+P32297+Q15825, K114N); format: cell-based
T12 construct: formed by splicing the N-terminal extracellular domain of the α6 subunit with the α3 subunit; fusion partner: remainder of the human α3 subunit (CHRNA3); expressed in transfected cells; host or cells: Xenopus laevis oocytes injected with cRNA

[15] = test system: h[α6K81N/α3]β4; format: cell-based, human
[16] = target: T13, hα6/α3β4T161S (Homo sapiens, UniProt P30926+Q15825, T187S); format: cell-based
T13 construct: formed by splicing the N-terminal extracellular domain of the α6 subunit with the α3 subunit; human nAChR α3 subunit (CHRNA3); expressed in transfected cells; host or cells: Xenopus laevis oocytes injected with cRNA (plasmids from the University of Utah)

[17] = test system: rat α6/α3β2β3 nAChR; details: cited from earlier work
[18] = target: T14, h[α6Q14R/α3]β4 (Homo sapiens, UniProt P30926+P32297+Q15825, Q47R); format: cell-based
T14 construct: formed by splicing the N-terminal extracellular domain of the α6 subunit with the α3 subunit; human nAChR α3 subunit (CHRNA3); expressed in transfected cells; host or cells: Xenopus laevis oocytes injected with cRNA (plasmids from the University of Utah)

[19] = test system: h[α6Q14R/α3]β4; format: cell-based, human
[20] = test system: human α6/α3β2β3 nAChR; details: cited from earlier work
[21] = target: T15, hα6/α3β4T65A (Homo sapiens, UniProt P30926+Q15825, T91A); format: cell-based
T15 construct: splicing the N-terminal extracellular domain of the α6 subunit with the α3 subunit; mutant made by PCR mutagenesis; host or cells: Xenopus laevis oocytes injected with cRNA

[22] = read-out: inhibition of the current response to 100 μM ACh

T9 sequence (Q15825+P32297 fused with the stated changes): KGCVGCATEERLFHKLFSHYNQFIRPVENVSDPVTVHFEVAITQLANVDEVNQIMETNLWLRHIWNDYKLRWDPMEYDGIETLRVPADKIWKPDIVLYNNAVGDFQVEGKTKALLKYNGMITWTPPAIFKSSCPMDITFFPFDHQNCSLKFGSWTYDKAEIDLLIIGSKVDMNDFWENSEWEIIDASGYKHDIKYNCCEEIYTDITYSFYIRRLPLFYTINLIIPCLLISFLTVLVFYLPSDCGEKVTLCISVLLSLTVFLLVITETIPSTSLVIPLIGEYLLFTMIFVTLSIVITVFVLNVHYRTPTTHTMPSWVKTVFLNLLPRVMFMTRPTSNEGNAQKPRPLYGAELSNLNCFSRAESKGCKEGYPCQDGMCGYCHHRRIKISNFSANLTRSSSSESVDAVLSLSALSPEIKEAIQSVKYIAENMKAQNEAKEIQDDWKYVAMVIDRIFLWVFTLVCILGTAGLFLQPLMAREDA
T9 sequence (P30926 22-498): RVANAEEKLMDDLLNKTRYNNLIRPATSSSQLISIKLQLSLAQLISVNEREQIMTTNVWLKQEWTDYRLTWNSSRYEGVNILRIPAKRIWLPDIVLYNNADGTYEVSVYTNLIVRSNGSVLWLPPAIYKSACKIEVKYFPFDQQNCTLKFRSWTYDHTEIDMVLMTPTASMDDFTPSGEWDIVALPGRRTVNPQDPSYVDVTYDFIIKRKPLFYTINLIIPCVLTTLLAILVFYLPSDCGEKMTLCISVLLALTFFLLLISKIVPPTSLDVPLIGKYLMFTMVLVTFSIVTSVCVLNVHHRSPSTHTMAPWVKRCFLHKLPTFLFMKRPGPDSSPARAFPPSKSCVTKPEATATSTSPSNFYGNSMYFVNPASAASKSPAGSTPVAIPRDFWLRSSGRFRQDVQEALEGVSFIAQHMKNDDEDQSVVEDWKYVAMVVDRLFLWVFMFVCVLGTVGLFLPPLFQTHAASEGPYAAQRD
T4 sequence (Q15825 26-239 limits assumed): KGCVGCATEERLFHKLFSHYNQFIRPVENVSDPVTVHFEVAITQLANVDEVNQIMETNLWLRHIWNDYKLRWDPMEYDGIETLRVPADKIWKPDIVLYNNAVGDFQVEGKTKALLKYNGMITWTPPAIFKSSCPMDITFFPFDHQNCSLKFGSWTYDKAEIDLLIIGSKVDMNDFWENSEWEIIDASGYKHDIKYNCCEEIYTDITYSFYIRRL
T4 sequence (P30926 22-498 V141I): as the sequence (P30926 22-498) above, with V120I counted along it
T10 sequence (P30926 whole entry, looked up, stated change not applied, the tested form may be a part): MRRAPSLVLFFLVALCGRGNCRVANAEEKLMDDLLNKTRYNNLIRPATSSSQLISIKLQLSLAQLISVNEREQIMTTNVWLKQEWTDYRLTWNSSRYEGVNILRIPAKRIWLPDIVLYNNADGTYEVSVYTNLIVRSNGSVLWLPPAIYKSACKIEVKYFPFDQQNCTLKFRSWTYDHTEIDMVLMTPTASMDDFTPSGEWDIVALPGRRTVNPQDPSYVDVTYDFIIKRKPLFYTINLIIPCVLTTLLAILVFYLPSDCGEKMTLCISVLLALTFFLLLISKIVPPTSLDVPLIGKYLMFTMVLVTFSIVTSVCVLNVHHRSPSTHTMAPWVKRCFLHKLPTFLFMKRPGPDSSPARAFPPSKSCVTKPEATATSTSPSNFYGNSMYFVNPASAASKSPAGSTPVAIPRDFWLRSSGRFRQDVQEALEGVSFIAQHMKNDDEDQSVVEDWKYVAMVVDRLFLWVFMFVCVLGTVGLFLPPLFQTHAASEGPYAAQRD
T10 sequence (P32297 whole entry, looked up, stated change not applied, the tested form may be a part): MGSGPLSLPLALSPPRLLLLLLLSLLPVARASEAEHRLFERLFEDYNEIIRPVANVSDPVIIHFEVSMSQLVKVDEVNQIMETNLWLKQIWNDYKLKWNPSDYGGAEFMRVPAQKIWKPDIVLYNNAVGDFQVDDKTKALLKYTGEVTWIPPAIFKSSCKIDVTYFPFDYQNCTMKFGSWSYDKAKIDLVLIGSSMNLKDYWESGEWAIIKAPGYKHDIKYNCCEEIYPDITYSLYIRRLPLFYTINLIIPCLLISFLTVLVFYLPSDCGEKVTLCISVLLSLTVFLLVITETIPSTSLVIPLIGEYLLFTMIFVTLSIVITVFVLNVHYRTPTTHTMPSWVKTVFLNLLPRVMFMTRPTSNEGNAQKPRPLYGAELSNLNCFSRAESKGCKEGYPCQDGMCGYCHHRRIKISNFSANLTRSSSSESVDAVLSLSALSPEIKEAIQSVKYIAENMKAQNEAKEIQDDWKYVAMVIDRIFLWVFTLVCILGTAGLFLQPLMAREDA
T10 sequence (Q15825 whole entry, looked up, stated change not applied, the tested form may be a part): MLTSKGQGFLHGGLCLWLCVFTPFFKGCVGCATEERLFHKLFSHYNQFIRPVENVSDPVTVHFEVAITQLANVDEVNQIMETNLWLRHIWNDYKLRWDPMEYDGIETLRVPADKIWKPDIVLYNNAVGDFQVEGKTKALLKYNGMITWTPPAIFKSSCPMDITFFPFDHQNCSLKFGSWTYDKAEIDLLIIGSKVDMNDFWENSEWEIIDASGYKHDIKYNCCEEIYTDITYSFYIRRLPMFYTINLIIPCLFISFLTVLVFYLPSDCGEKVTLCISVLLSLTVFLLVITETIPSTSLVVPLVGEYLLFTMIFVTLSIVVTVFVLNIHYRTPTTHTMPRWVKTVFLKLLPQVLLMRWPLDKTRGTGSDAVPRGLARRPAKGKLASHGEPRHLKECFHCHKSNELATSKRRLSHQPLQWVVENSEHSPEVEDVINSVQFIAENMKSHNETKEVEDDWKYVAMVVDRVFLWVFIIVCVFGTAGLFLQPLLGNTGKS
T1 sequence (Q15825+P32297 fused with the stated changes): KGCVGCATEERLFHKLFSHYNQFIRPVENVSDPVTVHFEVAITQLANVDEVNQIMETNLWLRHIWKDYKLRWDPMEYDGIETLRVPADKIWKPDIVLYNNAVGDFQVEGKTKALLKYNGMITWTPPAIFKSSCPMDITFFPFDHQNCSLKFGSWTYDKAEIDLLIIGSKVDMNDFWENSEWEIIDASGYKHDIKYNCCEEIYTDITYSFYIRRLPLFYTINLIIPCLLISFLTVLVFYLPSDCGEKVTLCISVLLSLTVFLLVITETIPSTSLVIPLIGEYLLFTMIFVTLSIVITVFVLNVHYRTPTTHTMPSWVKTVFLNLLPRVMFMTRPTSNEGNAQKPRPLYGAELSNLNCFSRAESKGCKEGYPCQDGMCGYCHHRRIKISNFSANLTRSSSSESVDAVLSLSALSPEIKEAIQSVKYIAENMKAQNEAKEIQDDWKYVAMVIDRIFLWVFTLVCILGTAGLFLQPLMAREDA
T1 sequence (P30926 22-498): as the sequence (P30926 22-498) above
T6 sequence (Q15825 26-239 limits assumed): as the sequence (Q15825 26-239 limits assumed) above
T6 sequence (P30926 22-498 K57R): as the sequence (P30926 22-498) above, with K36R counted along it

## CC(C)C[C@@H]1NC(=O)[C@H](CC(=O)O)NC(=O)[C@@H]2CCCN2C(=O)[C@H](Cc2c[nH]cn2)NC(=O)[C@H](CCCCN)NC(=O)[C@H](CC(N)=O)NC(=O)[C@H](CCCNC(=N)N)NC(=O)[C@@H]2CSSC[C@H](NC(=O)CN)C(=O)N[C@@H](CSSC[C@@H](C(N)=O)NC1=O)C(=O)N[C@@H](CO)C(=O)N[C@@H](CC(=O)O)C(=O)N1CCC[C@H]1C(=O)N1CCC[C@H]1C(=O)N2 [TxIB] (H-GCCSDPPCRNKHPDLC-NH2; disulfide 2-8, 3-16)
[1]
  Hill Slope: 0.9 (0.8–1.1)
  Ratio (change in TxIB IC50 relative to hα6/α3β4): 0.9
[2]
  Hill Slope: 0.9 (0.7–1.0)
  Ratio (change in TxIB IC50 relative to hα6/α3β4): 0.8
[3]
  Hill Slope: 0.8 (0.7–0.9)
  Ratio (change in TxIB IC50 relative to hα6/α3β4): 0.6
[4]
  Hill Slope: 0.8 (0.7–0.9)
  Ratio (change in TxIB IC50 relative to hα6/α3β4): 2.8
[4]; [22]
  activity at 10 µM: 20.1 ± 3.86%
[5]
  Hill Slope: 0.8 (0.7–0.9)
  Ratio (change in TxIB IC50 relative to hα6/α3β4): 1.7
[6]
  Ratio (change in TxIB IC50 relative to hα6/α3β4): 8.1
  time to full restoration of currents blocked by TxIB: ≤ 1 min
[6]; read-out: IC50
  IC50: 4.3 µM
[6]; read-out: IC50 (95% CI)
  IC50: 4.34 µM
[6]; [22]
  activity: 31.9 ± 8.05%
[7]
  Hill Slope: 0.8 (0.7–0.9)
  Ratio (change in TxIB IC50 relative to hα6/α3β4): 2.2
[8]
  Ratio (change in TxIB IC50 relative to hα6/α3β4): 0.9
[9]
  Hill Slope: 0.9 (0. 8–1.1)
[10]
  Hill Slope: 0.9 (0.8–1.0)
  Ratio (change in TxIB IC50 relative to hα6/α3β4): 1.6
[11]
  Hill Slope: 0.8 (0.8–0.9)
  Ratio (change in TxIB IC50 relative to hα6/α3β4): 1
  blocking effect: completely blocked
  variation of activity between human and murine nAChRs: more than 30 fold
[11]; [22]
  activity at 10 µM: 11 ± 5.9%
[12]
  Hill Slope: 1.0 (0.9–1.2)
  Ratio (change in TxIB IC50 relative to hα6/α3β4): 0.9
[13]
  Hill Slope: 0.9 (0.8–1.0)
  Ratio (change in TxIB IC50 relative to hα6/α3β4): 1.1
[14]
  Hill Slope: 0.8 (0.7–0.9)
[15]
  Ratio (change in TxIB IC50 relative to hα6/α3β4): 1.2
[16]
  Hill Slope: 0.8 (0.6–0.9)
  Ratio (change in TxIB IC50 relative to hα6/α3β4): 1.8
[17]
  IC50: 0.028 µM
[18]
  Hill Slope: 0.9 (0.7–1.2)
[19]
  Ratio (change in TxIB IC50 relative to hα6/α3β4): 1
[20]
  blocking effect: significant blocking effect
[21]
  Hill Slope: 0.9 (0.8–1.0)
  Ratio (change in TxIB IC50 relative to hα6/α3β4): 1
